Test results taken from publication PMC6114104 (International Journal for Parasitology: Drugs and Drug …, 2018).
Structures can show the parent of a compound that is named as a salt. Where two headings read alike, the source gives them in different places. Marks after values point to notes of the source that are not given here.

Columns and labels:
[1] = system: BT cells (bovine turbinate cells); conditions: uninfected BT cells, 3 days; 100 μM maximum concentration tested
[2] = system: S. neurona + GFP/FLUC parasites; assay: Luciferase-based S. neurona growth inhibition, EC50 determination; conditions: for EC50: Sarcocystis neurona; for TI (TC50/EC50): ratio of BT cell TC50 to S. neurona EC50
P. falciparum = conditions: PubChem BioAssay; ref Wang et al., 2017; cited from earlier work
Cryptosporidium parvum = conditions: ref Bessoff et al., 2013; cited from earlier work
T. gondii = conditions: ref Dittmar et al., 2016; Wang et al., 2017; Bowden, unpublished data; cited from earlier work
[3] = horses, ref DiMaio Knych et al., 2011, cited from earlier work
[4] = system: S. neurona + GFP/FLUC parasites; assay: microbe, parasite or virus in culture; format: cell-based, Sarcocystis neurona; conditions: for Effect on S. neurona growth reflected by increases in FLUC activity: 10 μM HTS, not confirmed with secondary screening
S. neurona = conditions: ref Gargala et al., 2009, cited from earlier work
S. neurona parasites = conditions: ref Lindsay and Dubey, 1999; cited from earlier work
[5] = 96 h, read-out: EC50 in μM (95% CI)

O=C(c1ccc(F)cc1)C1CCN(CCn2c(=S)[nH]c3ccccc3c2=O)CC1 [Altanserin]
TC50 in μM [1]: >100 ^a μM
EC50 [2, 5]: 3.5 µM
TI (TC50/EC50) [2]: 29

C[C@H]1[C@H](OC(=O)CCC(=O)O)O[C@@H]2O[C@@]3(C)CC[C@H]4[C@H](C)CC[C@@H]1[C@@]24OO3 [Artesunate]
TC50 [1]: >100 µM
EC50 [2, 5]: 3.3 µM
TI (TC50/EC50) [2]: 30

CN1CCCC(n2nc(Cc3ccc(Cl)cc3)c3ccccc3c2=O)CC1 (stereo not drawn) [Azelastine HCl]
TC50 [1]: 28 µM
EC50 [2, 5]: 2.5 µM
TI (TC50/EC50) [2]: 11

CCCCCCNC(=O)n1cc(F)c(=O)[nH]c1=O [Carmofur]
Activity against P. falciparum (P. falciparum): active
Activity against Cryptosporidium parvum (Cryptosporidium parvum): active
TC50 [1]: >100 µM
EC50 [2, 5]: 0.73 µM
TI (TC50/EC50) [2]: 137
Activity against T. gondii (T. gondii): active

Oc1c(Cl)cc(Cl)c2cccnc12 [Chloroxine]
TC50 [1]: 16 µM
EC50 [2, 5]: 2.5 µM
TI (TC50/EC50) [2]: 6

CC(C)/N=c1\cc2n(-c3ccc(Cl)cc3)c3ccccc3nc-2cc1Nc1ccc(Cl)cc1 [Clofazimine]
TC50 [1]: >100 µM
EC50 [2, 5]: 3.7 µM
TI (TC50/EC50) [2]: 27

O=C1CN(/N=C/c2ccc(-c3ccc([N+](=O)[O-])cc3)o2)C(O)=N1 [Dantrolene]
Peak plasma concentration ([3]; 500 mg capsules, converted): 85.95 nM
Peak plasma concentration ([3]; 500 mg capsules): 28.9 ± 21.6 ng/mL
Peak plasma concentration ([3]; 500 mg paste, converted): 112.4 nM
Peak plasma concentration ([3]; 500 mg paste): 37.8 ± 12.8 ng/mL
Time of peak plasma concentration after administration ([3]; both formulations (capsules and paste)): 3.8 h
TC50 [1]: 52 µM
EC50 [2, 5]: 0.065 µM
EC50 ([2]; read-out: EC50 for S. neurona inhibition in ng/ml): 21.9 ng/mL
TI (TC50/EC50) [2]: 800

O=c1c(-c2ccccc2)c1-c1ccccc1 [Diphenylcyclopropenone]
TC50 [1]: 19 µM
EC50 [2, 5]: 2.5 µM
TI (TC50/EC50) [2]: 8

CCN(CC)C(=S)SSC(=S)N(CC)CC [Disulfiram]
TC50 [1]: 20 µM
EC50 [2, 5]: 0.15 µM

O=c1[nH]cc(F)c(=O)[nH]1 [Fluorouracil]
Activity against P. falciparum (P. falciparum): active
Activity against Cryptosporidium parvum (Cryptosporidium parvum): active
TC50 [1]: 78 µM
EC50 [2, 5]: 0.79 µM
TI (TC50/EC50) [2]: 99
Activity against T. gondii (T. gondii): active

Oc1c(Cl)cc(Cl)c(Cl)c1Cc1c(O)c(Cl)cc(Cl)c1Cl [Hexachlorophene]
TC50 [1]: 56 µM
EC50 [2, 5]: 2.8 µM
TI (TC50/EC50) [2]: 20

Cl.O=C1[C@H]2CCCC[C@H]2C(=O)N1CCCCN1CCN(c2nsc3ccccc23)CC1 [Perospirone HCl]
TC50 [1]: 86 µM
TI (TC50/EC50) [2]: 25

OCCN1CCN(CCCN2c3ccccc3Sc3ccc(Cl)cc32)CC1 [Perphenazine]
TC50 [1]: 14 µM
EC50 [2, 5]: 3.3 µM
TI (TC50/EC50) [2]: 4

COc1cc2nc(N3CCN(C(=O)c4ccco4)CC3)nc(N)c2cc1OC [Prazosin]
TC50 [1]: 45 µM
EC50 [2, 5]: 6 µM
TI (TC50/EC50) [2]: 8

COc1cc(NC(C)CCCN)c2ncccc2c1 (stereo not drawn) [Primaquine phosphate]
TC50 [1]: 47 µM
EC50 [2, 5]: 2.2 µM
TI (TC50/EC50) [2]: 21

CCc1nc(N)nc(N)c1-c1ccc(Cl)cc1 [Pyrimethamine]
TC50 [1]: >100 µM
FLUC activity of treated parasites ([2]; 10 μM, measured every 2 days over 10-day incubation): severely diminished FLUC activity
EC50 [2, 5]: 3.9 µM
EC50 ([2]; read-out: EC50 of pyrimethamine (HTS validation, Fig. 2B)): 3.22 µM
TI (TC50/EC50) [2]: 26

CN1CCN(CC/C=C2/c3ccccc3Sc3ccc(S(=O)(=O)N(C)C)cc32)CC1 [Thiothixene]
TC50 [1]: 30 µM
EC50 [2, 5]: 6.3 µM
TI (TC50/EC50) [2]: 5

CCCSc1ccc2nc(NC(=O)OC)[nH]c2c1 [albendazole]
Effect on S. neurona growth reflected by increases in FLUC activity [4]: growth-enhancing

CC(=O)Oc1ccccc1C(=O)Nc1ncc([N+](=O)[O-])s1 [nitazoxanide]
Reported mean 90% inhibitory activity against S. neurona, in μM (S. neurona; approximate conversion): approximately 6.2 μM
Reported mean 90% inhibitory activity against S. neurona (S. neurona): 1.9 mg/L
EC50 [2, 5]: ~12 µM

c1ccc2[nH]c(-c3cscn3)nc2c1 [thibendazole]
Effect on S. neurona growth reflected by increases in FLUC activity [4]: growth-enhancing

COc1cc(Cc2cnc(N)nc2N)cc(OC)c1OC [trimethoprim]
Reported EC50 for S. neurona parasites in vitro (S. neurona parasites): 2.5 µg/mL
inhibition at 10 µM ([4]; Sarcocystis neurona, read-out: % inhibition of parasite growth in HTS): ≤ 80%
EC50 [2, 5]: ~19 µM

Cc1ccc(-c2nc3ccc(C)cn3c2CC(=O)N(C)C)cc1 [zolpidem tartrate]
Effect on S. neurona growth reflected by increases in FLUC activity [4]: growth-enhancing
